Measured values from US20040087655A1, “6-Substituted indanoyl amino acid conjugates as mimics to the biological activity of coronatine” (priority 2001, published 2004).

Tests used:
[1] = in particular in solution; contact with light; cited from earlier work
[2] = tested on: touch-sensitive tendrils of Bryonia dioica; assay: Tendril coiling of Bryonia dioica shoots; assay type: in vivo; parameters: key to tendril coiling at 500 μm concentration / tendril coiling 100 μm concentration / tendril coiling 10 μm concentration: −: no coiling; +: minor coiling; ++: Considerable coiling; +++: intense coiling; settings: for tendril coiling 10 μm concentration / tendril coiling 100 μm concentration / tendril coiling at 500 μm concentration: followed over 20 h
Experimental: Tendril coiling: To test the ability of the conjugates to induce tendril coiling, shoots of Bryonia dioica with the youngest, most well-developed tendrils were cut and immediately placed into vials with the test solution (2 ml) with the indanoyl conjugates (5-1000 μM) or coronatine (5-100 μM) and the extent of coiling was followed over a period of 20 h. The efficacy of the compounds as to their ability to induce tendril coiling was evaluated by the experimentator accordihg to the following scale: […]

[3] = tested on: Lima bean Phaseolus lunatus; assay: Induction of volatile emission in cut Lima bean plantlets (headspace collection, GC-MS); assay type: in vivo; settings: for induction of C16 terpenoid TMTT emission / induction of methyl salicylate emission: volatile blend, FIG. 2
Experimental: Plant material: Induction experiments were performed with plantlets of the Lima bean Phaseolus lunatus (Ferry Morse cv. Jackson Wonder Bush). Individual plants were grown from seed in a plastic pot (Ø=5.5 cm) at 23° C. and 80% humidity using daylight fluorescent tubes at ca. 270 μE m^2 st^−1 with a photophase of 14 h. Experiments were conducted with 12-16 day-old seedlings showing two fully developed leaves.
Induction experiments: Plantlets of P. lunatus with two fully developed primary leaves were cut with razor blades and immediately transferred into Eppendorf vials containing a solution of the test-substance in tap water (100 μl). Solutions of the unsubstituted prior art compound indanoyl-L-isoleucine and of 6 -ethyl indanoyl-L-isoleucine methyl ester according to the invention were applied at 10, 100 and 1000 μM. Coronatne was used as a 100 μM aqueous solution. After uptake of the solution, the plantlets were placed into vials with tap water (5 ml) and were enclosed in small desiccators (750 ml) and maintained at 25° C. for 24 h. Control experiments were conducted under identical conditions by placing freshly cut plantlets into tap water. All experiments were carried out in triplicate.
Collection and analysis of headspace volatiles: The volatiles emitted from the pre-treated plants were collected continuously on small charcoal traps (1 mg charcoal, CLSA-Filter, Le Ruisseau de Montbrun, F-09350 Daumazan sur Arize, France) over a period of 24 h using air circulation as described in J. Donath and W. Boland, Phytochemistry 1995, 39, 785-790.
After desorption of the volatiles from the carbon trap with 40 μl of a solution of 1-bromodecane (internal standard, 50 μM) in dichloromethane. The extracts were directly analysed by GC/MS. GC-conditions: Fused-silica capillary (30 m×0.25 mm) coated with DB 5 (0.25 μm). Helium at […] served as carrier gas. Separation of the compounds was achieved under programmed conditions (50° C. for 2 min, then at 10° C. min^−1 to 200° C., finally at 35° C. min^−1 to 280° C.). MS: Finnigan GCQ; GC-interface at 265° C.; scan range 35-450 Da. Individual compounds (peak area) were quantified with respect to the peak area of the internal standard.

[4] = tested on: internal level of salicylic acid in plants; assay: Internal level of salicylic acid in pre-treated plants; assay type: in vivo; settings: plants pre-treated with the compound

| Compound | stability [1] | tendril coiling 10 μm concentration [2] | tendril coiling 100 μm concentration [2] | tendril coiling at 500 μm concentration [2] | concentration necessary to induce a coiling response ([2]; tendrils of Bryonia dioica) | up-regulation of biosynthesis of 4,8-dimethyl-nona-1,3,7-triene (DMNT) ([3]; compared with the unsubstituted prior art compound) | threshold concentration ([3]; induction of volatiles) | induction of C16 terpenoid TMTT emission [3] | induction of methyl salicylate emission [3] | fold more active than the prior art compound unsubstituted at the 6-position ([3]; volatile induction, relative to 1-oxo-indanoyl-isoleucine methyl ester) | concentration inducing the coiling reaction (threshold concentration) ([2]; tendrils of Bryonia dioica) | increase of salicylate (internal level of salicylic acid) [4] [fold] |
| --- | --- | --- | --- | --- | --- | --- | --- | --- | --- | --- | --- | --- |
| 6-azido-1-oxo-indanoyl isoleucine derivative | unstable |  |  |  |  |  |  |  |  |  |  |  |
| CC[C@H](C)[C@H](NC(=O)c1cccc2c1CCC2=O)C(=O)OC [1-oxo-indanoyl isoleucine methyl ester, 1-oxo-indanoyl-isoleucine methyl ester] |  | − | + | ++ | about 1 mM |  |  |  |  |  |  |  |
| CCc1cc2c(c(C(=O)NC(C(=O)OC)C(C)CC)c1)CCC2=O (stereo not drawn) [2-[(6-Ethyl-1-oxo-indane-4-carbonyl)-amino]-3-methyl-pentanoic acid methyl ester] |  | + | +++ | +++ |  | much more pronounced | less than 10 μM | induced | induced | 30-50 fold | 20 µM | 8 |
| CCC1CC1(NC(=O)C1=C[C@H](CC)C[C@@H]2C(=O)CC[C@H]12)C(=O)O (stereo partly drawn) [coronatine] |  | ++ | +++ | +++ |  |  |  | induced | induced |  | about 2 μM |  |
